Measurements reported in patent US10130615B2, “Benzomorphan analogs and the use thereof” (priority 2014, dated 2018).
Read-outs that look alike come from different tables or passages of the source.

Experiments:
[1] = target: κ-opioid receptor (Homo sapiens, UniProt P41145); test: κ-opioid receptor GTPγS functional assay, U2OS cells; assay type: biochemical; parameters: expressed in transfected cells; host or cells: U-2 OS
Protocol: Plates were incubated for 30 min at a temperature of about 25° C. with shaking.

[2] = target: T1, μ-opioid receptor (Homo sapiens, UniProt P35372); test: μ-opioid receptor GTPγS functional assay, U2OS cells; conditions: for Emax: read-out: GTPγS μ Emax
[3] = target: T1, μ-opioid receptor; test: biochemical; parameters: purchased Perkin Elmer, Shelton, Conn; host or cells: HEK-293 or CHO; conditions: HEK-293 or CHO cells; for Emax: relative to DAMGO, read-out: GTPγS μ Emax; for EC50: read-out: GTPγS μ EC50
[4] = U2OS cells, read-out: GTPγS κ EC50

Chain of κ-opioid receptor (P41145 whole entry): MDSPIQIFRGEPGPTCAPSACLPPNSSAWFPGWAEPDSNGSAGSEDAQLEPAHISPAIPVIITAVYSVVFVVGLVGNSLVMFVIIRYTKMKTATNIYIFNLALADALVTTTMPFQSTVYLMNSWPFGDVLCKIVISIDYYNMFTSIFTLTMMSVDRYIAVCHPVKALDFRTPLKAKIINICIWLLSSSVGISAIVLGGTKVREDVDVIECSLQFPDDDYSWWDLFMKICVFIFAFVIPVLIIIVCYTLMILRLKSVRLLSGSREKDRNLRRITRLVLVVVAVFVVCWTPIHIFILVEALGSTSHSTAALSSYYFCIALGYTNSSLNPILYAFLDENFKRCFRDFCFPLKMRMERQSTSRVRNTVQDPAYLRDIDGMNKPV
T1 sequence (P35372 whole entry, species assumed): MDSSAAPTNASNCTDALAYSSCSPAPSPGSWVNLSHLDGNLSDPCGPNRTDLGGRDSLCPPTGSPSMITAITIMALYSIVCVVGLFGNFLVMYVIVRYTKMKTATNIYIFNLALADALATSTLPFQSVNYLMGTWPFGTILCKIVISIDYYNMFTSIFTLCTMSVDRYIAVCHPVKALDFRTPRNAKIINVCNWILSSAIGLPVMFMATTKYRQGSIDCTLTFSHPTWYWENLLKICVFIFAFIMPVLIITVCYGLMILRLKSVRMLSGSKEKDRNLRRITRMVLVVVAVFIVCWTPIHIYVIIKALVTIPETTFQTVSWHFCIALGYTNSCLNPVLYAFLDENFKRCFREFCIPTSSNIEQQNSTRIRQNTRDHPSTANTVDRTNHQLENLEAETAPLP

SMILES	Emax [3] [%]	EC50 [3] [µM]	further results
COc1ccc2c(c1)[C@]1(CCN3CCC(N(C4CC4)S(=O)(=O)c4ccc(Cl)cc4)CC3)CCN(C)[C@H](C2)[C@@H]1C [Compound 53, 4-chloro-N-cyclopropyl-N-(1-(2-((2R,6R,11R)-8-methoxy-3,11-dimethyl-2,3,4,5-tetrahydro-2,6-methanobenzo-[d]azocin-6(1H)-yl)ethyl)piperidin-4-yl)-benzenesulfonamide]	–	–	Emax ([1]; U2OS cells): 13.3 ± 2.19%; EC50 [1, 4]: 7 ± 3.06 µM; EC50 [2]: 1.25 ± 0.0854 µM; Emax [2]: 63.3 ± 2.03%
COc1ccc2c(c1)[C@@]1(CCN[C@H](C(=O)O)C(C)C)CCN(CC3CC3)[C@@H](C2)[C@H]1C [Compound 41, (2-((2S,6S,11S)-3-(cyclopropylmethyl)-8-methoxy-11-methyl-2,3,4,5-tetrahydro-2,6-methanobenzo[d]azocin-6(1H)-yl)ethyl)-L-valine]	0	–	–
C[C@H]1[C@H]2Cc3ccc(O)cc3[C@]1(CCNC(=O)Nc1cccc(Oc3ccccc3)c1)CCN2C [Compound 74, 1-(2-((2R,6R,11R)-8-hydroxy-3,11-dimethyl-2,3,4,5-tetrahydro-2,6-methanobenzo[d]azocin-6(1H)-yl)ethyl)-3-(3-phenoxyphenyl)urea]	52.1 ± 1.88	0.0184 ± 0.00209	–
COc1ccc2c(c1)[C@@]1(CCOCc3ccccc3)CCN(C)[C@@H](C2)[C@H]1C [Compound 47, (2S,6R,11S)-6-(2-(benzyloxy)ethyl)-8-methoxy-3,11-dimethyl-1,2,3,4,5,6-hexahydro-2,6-methanobenzo[d]azocine]	–	–	Emax ([1]; U2OS cells): 99.3 ± 0.67%; EC50 [1, 4]: 3.75 ± 0.207 µM; EC50 [2]: 8.99 ± 1.63 µM; Emax [2]: 72.3 ± 3.84%
COc1ccc2c(c1)[C@@]1(CCNC3(C(=O)O)CC3)CCN(CC3CC3)[C@@H](C2)[C@H]1C [Compound 35, 1-((2-((2S,6S,11S)-3-(cyclopropyl-methyl)-8-methoxy-11-methyl-2,3,4,5-tetrahydro-2,6-methanobenzo[d]azocin-6(1H)-yl)ethyl)amino)cyclopropane-1-carboxylic acid]	13 ± 1.53	17.5 ± 6.78	–
COc1ccc2c(c1)[C@]1(CCNCCc3ccc(S(N)(=O)=O)cc3)CCN(C)[C@H](C2)[C@@H]1C [Compound 51, 4-(2-((2-((2R,6R,11R)-8-methoxy-3,11-dimethyl-2,3,4,5-tetrahydro-2,6-methanobenzo[d]azocin-6(1H)-yl)ethyl)-amino)ethyl)benzenesulfonamide]	–	–	Emax ([1]; U2OS cells): 96.3 ± 0.67%; EC50 [1, 4]: 6.28 ± 0.318 µM; EC50 [2]: 6.71 ± 0.257 µM; Emax [2]: 76.7 ± 3.71%
COc1ccc2c(c1)[C@]1(CCN(C)CCCN(C)C)CCN(C)[C@H](C2)[C@@H]1C [Compound 54]	–	–	Emax ([1]; U2OS cells): 125 ± 1.53%; EC50 [1, 4]: 9.86 ± 0.349 µM; EC50 [2]: 18.7 ± 1.89 µM; Emax [2]: 95 ± 2.65%
C[C@@H]1[C@@H]2Cc3ccc(O)cc3[C@@]1(CCN1CCN(C(c3ccc(F)cc3)c3ccc(F)cc3)CC1)CCN2C [Compound 15, (2S,6S,11S)-6-(2-(4-(bis(4-fluoro-phenyl)methyl)piperazin-1-yl)ethyl)-3,11-dimethyl-1,2,3,4,5,6-hexahydro-2,6-methanobenzo[d]azocin-8-ol]	97.7 ± 1.76	3.46 ± 0.314	–
COc1ccc2c(c1)[C@@]1(CCO)CCN(C)[C@@H](C2)[C@H]1C [Compound 49, 2-((2S,6R,11S)-8-methoxy-3,11-dimethyl-2,3,4,5-tetrahydro-2,6-methanobenzo-[d]azocin-6(1H)-yl)ethan-1-ol]	–	–	Emax ([1]; U2OS cells): 41 ± 4.58%; Emax [2]: 21%
COc1ccc2c(c1)[C@]1(CCO)CCN(C)[C@H](C2)[C@@H]1C [Compound 50, 2-((2R,6S,11R)-8-methoxy-3,11-dimethyl-2,3,4,5-tetrahydro-2,6-methano-benzo[d]azocin-6(1H)-yl)ethan-1-ol]	–	–	EC50 [1]: > 2.32 µM; Emax ([1]; U2OS cells): 103 ± 8.41%; EC50 [2]: 2.39 ± 0.271 µM; Emax [2]: 88.3 ± 7.62%
COc1ccc2c(c1)[C@@]1(CCNCC(=O)O)CCN(CC3CC3)[C@@H](C2)[C@H]1C [Compound 39, (2-((2S,6S,11S)-3-(cyclopropylmethyl)-8-methoxy-11-methyl-2,3,4,5-tetrahydro-2,6-methanobenzo[d]azocin-6(1H)-yl)ethyl)glycine]	19.7 ± 3.18	–	–
COc1ccc2c(c1)[C@]1(CCNC(=O)[C@@H]3CCC(=O)N3)CCN(C)[C@H](C2)[C@@H]1C [Compound 84, (S)-N-(2-((2R,6R,11R)-8-methoxy-3,11-dimethyl-2,3,4,5-tetrahydro-2,6-methano-benzo[d]azocin-6(1H)-yl)ethyl)-5-oxopyrrolidine-2-carboxamide]	32.4 ± 0.76	12.4 ± 0.54	–
COc1ccc2c(c1)[C@]1(CCNC(=O)NS(=O)(=O)c3ccc(F)cc3)CCN(C)[C@H](C2)[C@@H]1C [Compound 67, 4-fluoro-N-((2-((2R,6R,11R)-8-methoxy-3,11-dimethyl-2,3,4,5-tetrahydro-2,6-methanobenzo[d]azocin-6(1H)-yl)ethyl)-carbamoyl)benzene-sulfonamide]	26.3 ± 3.38	2.45 ± 0.692	–
C[C@H]1[C@H]2Cc3ccc(O)cc3[C@]1(CCNCc1ccc(F)cc1)CCN2CC1CC1 [Compound 16, (2R,6R,11R)-3-(cyclopropylmethyl)-6-(2-((4-fluorobenzyl)amino)ethyl)-11-methyl-1,2,3,4,5,6-hexahydro-2,6-methanobenzo[d]azocin-8-ol]	10.8 ± 1.25	0.00304 ± 0.00026	–
C[C@H]1[C@H]2Cc3ccc(O)cc3[C@]1(CCNC(=O)[C@@H]1CCCN1)CCN2C [Compound 71, (S)-N-(2-((2R,6R,11R)-8-hydroxy-3,11-dimethyl-2,3,4,5-tetrahydro-2,6-methano-benzo[d]azocin-6(1H)-yl)ethyl)-pyrrolidine-2-carboxamide]	36 ± 0.58	1.58 ± 0.177	–
C[C@H]1[C@H]2Cc3ccc(O)cc3[C@]1(CCN(C)C)CCN2C [Compound 22, (2R,6R,11R)-6-(2-(dimethyl-amino)-ethyl)-3,11-dimethyl-1,2,3,4,5,6-hexahydro-2,6-methanobenzo[d]azocin-8-ol]	37.3 ± 1	1.07 ± 0.143	–
C[C@H]1[C@H]2Cc3ccc(O)cc3[C@]1(CCNC(=O)[C@@H]1CCCCN1)CCN2C [Compound 70, (S)-N-(2-((2R,6R,11R)-8-hydroxy-3,11-dimethyl-2,3,4,5-tetrahydro-2,6-methano-benzo[d]azocin-6(1H)-yl)ethyl)-piperidine-2-carboxamide]	27.7 ± 0.88	0.783 ± 0.208	–
C[C@H]1[C@H]2Cc3ccc(O)cc3[C@]1(CCNC(=O)NS(=O)(=O)c1ccccc1)CCN2C [Compound 75, N-((2-((2R,6R,11R)-8-hydroxy-3,11-dimethyl-2,3,4,5-tetrahydro-2,6-methanobenzo[d]azocin-6(1H)-yl)-ethyl)carbamoyl)benzenesulfonamide]	24.7 ± 0.17	0.314 ± 0.0302	–
C[C@H]1[C@H]2Cc3ccc(O)cc3[C@]1(CCNC(=O)[C@@H]1CCCC(=O)N1)CCN2CC1CC1 [Compound 82, (S)-N-(2-((2R,6R,11R)-3-(cyclopropyl-methyl)-8-hydroxy-11-methyl-2,3,4,5-tetrahydro-2,6-methanobenzo[d]azocin-6(1H)-yl)ethyl)-6-oxopiperidine-2-carboxamide]	8.9 ± 0.9	0.0196 ± 0.00939	–
C[C@@H]1[C@@H]2Cc3ccc(O)cc3[C@@]1(CCN1CCC(N(C3CC3)S(=O)(=O)c3ccccc3)CC1)CCN2C [Compound 14, N-cyclopropyl-N-(1-(2-((2S,6S,11S)-8-hydroxy-3,11-dimethyl-2,3,4,5-tetrahydro-2,6-methanobenzo[d]azocin-6(1H)-yl)ethyl)piperidin-4-yl)-benzenesulfonamide]	69 ± 0.58	11.9 ± 1.22	–
C[C@H]1[C@H]2Cc3ccc(O)cc3[C@]1(CCNC(=O)[C@@H]1CCC(=O)N1)CCN2CC1CC1 [Compound 81, (S)-N-(2-((2R,6R,11R)-3-(cyclopropyl-methyl)-8-hydroxy-11-methyl-2,3,4,5-tetrahydro-2,6-methanobenzo[d]azocin-6(1H)-yl)ethyl)-5-oxopyrrolidine-2-carboxamide]	10.8 ± 0.96	0.0181 ± 0.00415	–
C[C@H]1[C@H]2Cc3ccc(O)cc3[C@]1(CCNCc1ccco1)CCN2CC1CC1 [Compound 17, (2R,6R,11R)-3-(cyclopropylmethyl)-6-(2-((furan-2-ylmethyl)amino)ethyl)-11-methyl-1,2,3,4,5,6-hexahydro-2,6-methanobenzo[d]azocin-8-ol]	-0.88 ± 0.94	–	–
C[C@H]1[C@H]2Cc3ccc(O)cc3C1(CCNS(=O)(=O)N(C)C)CCN2CC1CC1 [Compound 9]	–	–	EC50 [2]: 0.00067 ± 1e-05 µM; Emax [2]: 27%
C[C@H]1[C@H]2Cc3ccc(O)cc3[C@]1(CCN1CCCC1)CCN2C [Compound 20, (2R,6R,11R)-3,11-dimethyl-6-(2-(pyrrolidin-1-yl)ethyl)-1,2,3,4,5,6-hexahydro-2,6-methanobenzo[d]azocin-8-ol]	108 ± 10.1	–	–
C[C@H]1[C@H]2Cc3ccc(O)cc3[C@]1(CCNC(=O)NC(c1ccccc1)c1ccccc1)CCN2C [Compound 73, 1-Benzhydryl-3-(2-((2R,6R,11R)-8-hydroxy-3,11-dimethyl-2,3,4,5-tetrahydro-2,6-methanobenzo[d]azocin-6(1H)-yl)ethyl)urea]	69.4 ± 1.22	0.00364 ± 0.00088	–
C[C@H]1[C@H]2Cc3ccc(O)cc3[C@]1(CCNC(=O)NS(=O)(=O)c1ccc(F)cc1)CCN2CC1CC1 [Compound 19, N-((2-((2R,6R,11R)-3-(cyclopropyl-methyl)-8-hydroxy-11-methyl-2,3,4,5-tetrahydro-2,6-methanobenzo[d]azocin-6(1H)-yl)ethyl)carbamoyl)-4-fluoro-benzenesulfonamide]	10.1 ± 0.98	0.0173 ± 0.00699	–
C[C@H]1[C@H]2Cc3ccc(O)cc3[C@]1(CCNC(=O)NCC(c1ccccc1)c1ccccc1)CCN2C [Compound 77, 1-(2,2-diphenylethyl)-3-(2-((2R,6R,11R)-8-hydroxy-3,11-dimethyl-2,3,4,5-tetrahydro-2,6-methanobenzo[d]azocin-6(1H)-yl)ethyl)urea]	57.1 ± 2.33	0.00461 ± 0.00075	–
